According to patent publication US9833465B2 (priority 2013, dated 2017):
Like-named read-outs stand apart in the source and are kept apart here.

Key:
Format in all cases: cell-based, human
[1] = tested on: H69AR multidrug resistant lung carcinoma; experiment: cells; conditions: multidrug resistant lung cancer cells, 3-6 days, MTT, triplicate, read-out: IC50 H69AR Lung/MDR
Method: (§1) Antiproliferative assay: The cytotoxicities of arimetamycins A (1), B (2) and C (3) were evaluated using four human cancer cell lines: HCT-116 colon carcinoma (ATCC; CCL-247) [M. G. Brattain, W. D. Fine, F. M. Khaled, J. Thompson, D. E. Brattain, Cancer Res 1981, 41, 1751-1756], WiDr colorectal adenocarcinoma (ATCC; CCL-218) [P. Noguchi, R. Wallace, J. Johnson, E. M. Earley, S. O'Brien, S. Ferrone, M. A. Pellegrino, J. Milstien, C. Needy, W. Browne, J. Petricciani, In vitro 1979, 15, 401-408], MDR-MB-231 breast adenocarcinoma (ATCC; HTB-26) [B. R. Brinkley, P. T. Beall, L. J. Wible, M. L. Mace, D. S. Turner, R. M. Cailleau, Cancer Res 1980, 40, 3118-3129] and H69AR multidrug resistant lung carcinoma (ATCC; CRL-11351) [S. E. Mirski, J. H. Gerlach, S. P. Cole, Cancer Res 1987, 47, 2594-2598] cell lines. HCT-116 and H69AR cells were grown in McCoy's 5A Modified Medium (Gibco) supplemented with 10% (v/v) FBS and RPMI-1640 (ATCC) supplemented with 20% (v/v) FBS, respectively. WiDr and MDA-MB-231 cells were grown in DMEM Medium (Gibco) supplemented with 10% (v/v) FBS. All the cell lines were incubated at 37° C. with 5% CO2. Cells in log phase growth were harvested by trypsinization. Cells were seeded into 96-well plates (HCT-116: 1,000 cells/well, WiDr: 3,000 cells/well, MDA-MB-231: 8,000 cells/well, H69AR: 25,000 cells/well) and incubated overnight at 37° C. with 5% CO2. Compounds 1-3 (in DMSO) were sequentially diluted (3-fold starting at 50 μg/mL) across a 96-well plate and 100 μL was transferred to the appropriate wells in the assay plates. Doxorubicin (Sigma-Aldrich) and daunorubicin (Sigma-Aldrich) were used as positive controls and DMSO was used as a negative control. The plates were incubated at 37° C. for 3-6 days depending on the growth rate and then evaluated for viability using either an MTT (3-(4,5-Dimethylthiazol-2-yl)-2,5-diphenyltetrazolium bromide) (MDR-MB-231 and H69AR) or crystal violet (HCT-116 and WiDr) based colorimetric assay [R. Supino, Methods in molecular biology 1995, 43, 137-149; bD. Zivadinovic, B. Gametchu, C. S. Watson, Breast Cancer Res 2005, 7, R101-112]. Cell viability is recorded based on the percent stain present in each well relative to no drug DMSO control wells. Assays were run in triplicate.

[2] = tested on: MDA-MB-231 breast adenocarcinoma; experiment: cells; conditions: breast cancer cells, 3-6 days, MTT, triplicate, read-out: IC50 MDSMB231 Breast
Method: as §1

[3] = tested on: WiDr colorectal adenocarcinoma; experiment: cells; conditions: WiDr colon cancer cells, 3-6 days, crystal violet, triplicate
Method: as §1

[4] = tested on: HCT-116 colon carcinoma; experiment: cells; conditions: HCT116 colon cancer cells, 3-6 days, crystal violet, triplicate
Method: Compounds were tested in HTC 116 cell line, which is an art-recognized isogenic human disease model predictive of activity in human patients. They were tested according to the following standard protocol:
as §1

[5] = tested on: representative colon, lung and breast cancer cell lines; experiment: Anticancer activity against colon, lung and breast cancer cell lines (summary over the panel); conditions: for anticancer activity (in words): colon, lung (MDR) and breast cancer cell lines
Method: Arimetamycins A-C (1-3) were evaluated for anticancer activity against representative colon, lung and breast cancer cell lines as described below. The lung cancer line (H69AR) is multidrug resistant (MDR), showing high-level resistance to anthracyclines (50-fold) as well as many other anticancer agents including vincristine, etoposide and mitoxantrone. […] P-glycoprotein expression-dependent MDR is the most clinically significant resistance mechanism affecting the utility of anthracyclines. Compounds of the genus described herein are the first anthracyclines from Streptomyces culture that appear effective against MDR cancers.
as §1

`COc1cc(O)c2c(c1)C(=O)c1cc3c(c(O)c1C2=O)[C@@H](O[C@H]1C[C@](C)(N(C)C)[C@H](O[C@H]2C[C@](C)(O)[C@H](N(C)C)[C@H](C)O2)[C@H](C)O1)[C@H](OC)[C@](C)(O)C3=O` [Arimetamycin A(1), arimetamycin A] showed an IC50 [1] of 67 nM, an IC50 [2] of 164 nM and an IC50 [3] of 0.5 nM. The IC50 [4] was 2.5 nM, the “IC50 against all cell lines (in words)” value ([5]; all cell lines including the H69AR MDR cell line) was “nanomolar” and the “anticancer activity (in words)” value [5] was “highly active against both MDR and drug sensitive cell lines”. For the same compound, the “IC50 fold lower than doxorubicin or daunorubicin” value ([5]; compared with either doxorubicin or daunorubicin) was 2-10 fold.

With `COc1cc(O)c2c(c1)C(=O)c1cc3c(c(O)c1C2=O)[C@@H](O[C@H]1C[C@H](O)[C@@H](O)[C@H](C)O1)[C@H](OC)[C@](C)(O)C3=O` [Arimetamycin B(2), arimetamycin B] the IC50 [1] was 47100 nM, the IC50 [2] was 29600 nM and the IC50 [3] was 7500 nM. For the same compound, the IC50 [4] was 1800 nM and the “anticancer activity (in words)” value [5] was “moderate activity”.

For `COc1cc(O)c2c(c1)C(=O)c1cc3c(c(O)c1C2=O)[C@@H](O[C@H]1C[C@H](OC)[C@@H](O)[C@H](C)O1)[C@H](OC)[C@](C)(O)C3=O` [Arimetamycin C(3), arimetamycin C], the IC50 [1] was 18800 nM, the IC50 [2] was 27700 nM and the IC50 [3] was 5200 nM. For the same compound, the IC50 [4] was 1400 nM and the “anticancer activity (in words)” value [5] was “moderate activity”.

For `COc1cccc2c1C(=O)c1c(O)c3c(c(O)c1C2=O)C[C@@](O)(C(C)=O)C[C@@H]3O[C@H]1C[C@H](N)[C@H](O)[C@H](C)O1` [Daunorubicin, daunorubicin, reference compound], the IC50 [1] was 4800 nM, the IC50 [2] was 330 nM and the IC50 [3] was 5.5 nM. For the same compound, the IC50 [4] was 6.8 nM.

Compound `COc1cccc2c1C(=O)c1c(O)c3c(c(O)c1C2=O)C[C@@](O)(C(=O)CO)C[C@@H]3O[C@H]1C[C@H](N)[C@H](O)[C@H](C)O1` [Doxorubicin, doxorubicin, reference compound] has an IC50 ([1]; Homo sapiens, H69AR) of 18400 nM, an IC50 ([2]; Homo sapiens, MDA-MB-231) of 970 nM and an IC50 ([3]; Homo sapiens) of 30.9 nM. It also gave an IC50 ([4]; Homo sapiens, HCT-116) of 22.5 nM.
